From ChEMBL document CHEMBL1255556, “6-Alkoxyisoindolin-1-one based dopamine D2 partial agonists as potential antipsychotics” (Bioorg Med Chem Lett, 2010) come the findings set out here.

Experiment [1] addresses T1, 5-hydroxytryptamine receptor 1A (Homo sapiens, UniProt P08908).
T1 sequence (P08908 whole entry): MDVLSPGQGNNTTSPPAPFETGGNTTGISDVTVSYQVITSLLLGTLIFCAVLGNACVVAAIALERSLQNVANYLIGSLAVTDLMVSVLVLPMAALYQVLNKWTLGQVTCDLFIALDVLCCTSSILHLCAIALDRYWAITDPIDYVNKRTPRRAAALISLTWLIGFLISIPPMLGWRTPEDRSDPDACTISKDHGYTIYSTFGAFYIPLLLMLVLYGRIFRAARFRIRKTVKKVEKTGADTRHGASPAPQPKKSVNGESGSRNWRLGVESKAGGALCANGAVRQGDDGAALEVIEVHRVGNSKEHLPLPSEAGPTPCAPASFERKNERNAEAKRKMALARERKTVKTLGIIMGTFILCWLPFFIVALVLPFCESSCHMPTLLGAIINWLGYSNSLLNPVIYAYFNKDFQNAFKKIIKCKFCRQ
Kind of experiment: biochemical.
Description: Displacement of [3H]-8-OH-DPAT from human 5HT1A receptor expressed in HeLa cells

In experiment [2] the target is 5-hydroxytryptamine receptor 2A (Homo sapiens, UniProt P28223). Kind of experiment: Binding affinity to human 5HT2A receptor.
For experiment [3], the target named is T1, 5-hydroxytryptamine receptor 1A. Kind of experiment: Binding affinity to human 5HT1A receptor expressed in HeLa cells by scintillation proximity assay. The class given is cell-based. For orientation: In a scintillation proximity assay essentially only radioactivity close to the scintillant gives light.
Experiment [4] deals with T2, Sodium-dependent serotonin transporter (Homo sapiens, UniProt P31645). As to the kind of experiment: Displacement of [3H]-citalopram from human serotonin transporter expressed in HEK 293 cells by scintillation proximity assay. It is filed as cell-based, HEK293. (In general: In a radioligand displacement assay an active substance lowers the binding of a labelled ligand.)

Experiment [5] concerns the target T2, Sodium-dependent serotonin transporter. Kind of experiment: Displacement of [3H]-citalopram from human serotonin transporter expressed in HEK 293 cells. The class given is cell-based, HEK293.
The target in experiment [6] is Voltage-gated inwardly rectifying potassium channel KCNH2 (Homo sapiens, UniProt Q12809).
Description: Displacement of [3H]dofetilide from human ERG

Broadly, the Ki is the equilibrium dissociation constant of an inhibitor or competing ligand from its target. A higher Ki goes with lower affinity.

T2 sequence (P31645 whole entry): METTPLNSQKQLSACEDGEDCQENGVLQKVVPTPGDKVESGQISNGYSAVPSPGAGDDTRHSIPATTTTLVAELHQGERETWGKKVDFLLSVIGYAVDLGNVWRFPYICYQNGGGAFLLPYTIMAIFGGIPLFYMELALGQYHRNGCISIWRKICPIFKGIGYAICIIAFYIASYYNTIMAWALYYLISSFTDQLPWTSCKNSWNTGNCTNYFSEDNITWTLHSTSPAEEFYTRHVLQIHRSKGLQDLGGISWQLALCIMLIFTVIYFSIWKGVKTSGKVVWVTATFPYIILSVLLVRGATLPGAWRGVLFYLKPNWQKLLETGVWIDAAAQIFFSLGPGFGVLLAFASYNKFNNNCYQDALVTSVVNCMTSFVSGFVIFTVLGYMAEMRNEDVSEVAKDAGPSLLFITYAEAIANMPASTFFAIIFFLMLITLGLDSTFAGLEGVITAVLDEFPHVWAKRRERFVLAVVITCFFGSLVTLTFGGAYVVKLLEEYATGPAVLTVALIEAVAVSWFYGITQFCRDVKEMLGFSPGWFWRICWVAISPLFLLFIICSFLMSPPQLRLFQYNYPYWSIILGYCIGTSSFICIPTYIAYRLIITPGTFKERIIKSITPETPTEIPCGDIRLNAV
Chain of 5-hydroxytryptamine receptor 2A (P28223 whole entry): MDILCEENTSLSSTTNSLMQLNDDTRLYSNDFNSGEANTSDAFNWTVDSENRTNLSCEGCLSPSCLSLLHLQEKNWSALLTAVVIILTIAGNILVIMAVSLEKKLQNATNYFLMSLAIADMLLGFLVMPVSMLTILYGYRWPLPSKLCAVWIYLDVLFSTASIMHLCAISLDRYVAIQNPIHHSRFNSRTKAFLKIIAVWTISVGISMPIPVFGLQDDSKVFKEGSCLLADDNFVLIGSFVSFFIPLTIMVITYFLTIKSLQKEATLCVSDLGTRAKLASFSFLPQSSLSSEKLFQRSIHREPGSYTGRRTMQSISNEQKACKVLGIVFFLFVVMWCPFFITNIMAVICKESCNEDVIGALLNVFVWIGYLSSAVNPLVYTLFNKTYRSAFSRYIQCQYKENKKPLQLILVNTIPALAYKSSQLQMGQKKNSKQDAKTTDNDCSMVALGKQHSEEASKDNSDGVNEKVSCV
Chain of Voltage-gated inwardly rectifying potassium channel KCNH2 (Q12809 whole entry): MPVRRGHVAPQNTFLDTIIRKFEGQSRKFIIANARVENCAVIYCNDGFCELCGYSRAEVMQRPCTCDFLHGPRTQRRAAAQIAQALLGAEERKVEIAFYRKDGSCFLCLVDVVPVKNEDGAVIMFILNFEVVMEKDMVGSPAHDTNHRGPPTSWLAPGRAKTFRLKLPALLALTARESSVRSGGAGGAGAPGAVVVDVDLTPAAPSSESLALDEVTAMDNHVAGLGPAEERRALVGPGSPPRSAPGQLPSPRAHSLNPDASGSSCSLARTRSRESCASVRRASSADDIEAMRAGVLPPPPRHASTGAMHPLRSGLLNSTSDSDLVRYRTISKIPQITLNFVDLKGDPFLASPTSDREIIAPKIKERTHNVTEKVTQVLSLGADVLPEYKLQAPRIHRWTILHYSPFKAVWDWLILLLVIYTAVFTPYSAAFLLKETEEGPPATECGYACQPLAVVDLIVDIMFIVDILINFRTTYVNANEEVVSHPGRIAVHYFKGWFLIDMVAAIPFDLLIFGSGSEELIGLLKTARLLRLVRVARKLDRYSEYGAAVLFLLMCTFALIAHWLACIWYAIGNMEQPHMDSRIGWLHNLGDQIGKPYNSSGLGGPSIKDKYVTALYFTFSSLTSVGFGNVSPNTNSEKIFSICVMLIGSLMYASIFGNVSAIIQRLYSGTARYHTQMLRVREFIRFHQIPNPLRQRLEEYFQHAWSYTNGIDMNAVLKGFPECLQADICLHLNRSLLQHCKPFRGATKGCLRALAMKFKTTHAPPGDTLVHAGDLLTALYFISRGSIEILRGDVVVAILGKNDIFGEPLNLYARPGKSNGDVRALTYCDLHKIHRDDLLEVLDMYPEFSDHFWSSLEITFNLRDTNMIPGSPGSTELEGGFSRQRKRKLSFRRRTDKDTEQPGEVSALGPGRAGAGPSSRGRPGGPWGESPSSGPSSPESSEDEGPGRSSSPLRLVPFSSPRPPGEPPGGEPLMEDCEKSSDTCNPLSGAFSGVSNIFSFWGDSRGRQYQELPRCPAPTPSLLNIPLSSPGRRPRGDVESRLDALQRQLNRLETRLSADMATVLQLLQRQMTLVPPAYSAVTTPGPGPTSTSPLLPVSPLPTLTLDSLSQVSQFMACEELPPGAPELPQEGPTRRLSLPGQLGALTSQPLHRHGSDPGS

In experiment [1], `O=C1NCc2ccc(OCCCCN3CCN(c4cccc5c4CCOC5)CC3)cc21` returned a Ki of 1.99 nM.

On to `O=C1NCc2cc(Cl)c(OCCCCN3CCN(c4cccc5cccc(F)c45)CC3)cc21`, for which the Ki came to 25.3 nM in experiment [2], 1.68 nM in experiment [3] and 45.6 nM in experiment [4].

Regarding `O=C1NCc2cc(F)c(OCCCN3CCN(c4cccc5ccc(F)cc45)CC3)cc21`, the Ki turned out to be 2.68 nM in experiment [2], 13.6 nM in experiment [5], 0.341 nM in experiment [3] and 419 nM in experiment [4].

`Fc1ccc2cccc(N3CCN(CCCCOc4ccc5c(c4)CNC5)CC3)c2c1`: the Ki is 1680 nM in experiment [6], 0.483 nM in experiment [2] and 0.243 nM in experiment [1].

Turning to `O=C1NCc2cc(Cl)c(OCCCN3CCN(c4cccc5cccc(F)c45)CC3)cc21`, the Ki amounted to 8.84 nM in experiment [2], 0.859 nM in experiment [3] and 20.2 nM in experiment [4].

Consider `O=C1NCc2ccc(OCCCCN3CCN(c4cccc5c4CCCC5)CC3)cc21`, for which the results for the Ki in experiment [2] and in experiment [3] were 3.35 nM and 1.92 nM, respectively.

Consider `O=C1NCc2ccc(OCCCN3CCN(c4cccc5ccc(F)cc45)CC3)c(F)c21`, for which the Ki in experiment [2] was 0.904 nM; in experiment [5] it was 1770 nM; in experiment [3], less than 0.205 nM; in experiment [4], 447 nM.

For the molecule `Cc1cc2c(cc1OCCCCN1CCN(c3cccc4cc(F)ccc34)CC1)C(=O)NC2`, the Ki in experiment [2] was found to be 29.5 nM; in experiment [3], 1.98 nM; in experiment [4], 8.81 nM.

On to `O=C1NCc2ccc(OCCCN3CCN(c4cccc5ccccc45)CC3)c(Cl)c21`, for which the Ki in experiment [2] stood at 2.06 nM; in experiment [3] it was 0.786 nM; in experiment [4], 104 nM.

Regarding `Cc1cc2c(cc1OCCCN1CCN(c3cccc4cccc(F)c34)CC1)C(=O)NC2`, the Ki in experiment [2] was determined as 65.7 nM; in experiment [3], 1.44 nM; in experiment [4], 174 nM.

Consider `Cc1c(OCCCN2CCN(c3cccc4ccccc34)CC2)ccc2c1C(=O)NC2`, for which the results for the Ki in experiment [2], in experiment [3] and in experiment [4] were 9.43 nM, 0.615 nM and 194 nM, respectively.

`O=C1NCc2ccc(OCCCN3CCN(c4cccc5c4CCCC5)CC3)cc21`: the Ki in experiment [2] came out at 4.86 nM; in experiment [3], 0.269 nM.

`Cc1cc2c(cc1OCCCN1CCN(c3cccc4ccccc34)CC1)C(=O)NC2`: the results for the Ki in experiment [2], in experiment [3] and in experiment [4] were 55.9 nM, 0.67 nM and 1040 nM, respectively.

As to `O=C1NCc2ccc(OCCCN3CCN(c4cccc5c4CCC5)CC3)cc21`, the values for the Ki in experiment [2] and in experiment [3] were 3.16 nM and more than 4.04 nM, respectively.

Take `O=C1NCc2ccc(OCCCN3CCN(c4cccc5cccc(F)c45)CC3)c(F)c21`: the figures for the Ki in experiment [2], in experiment [5] and in experiment [3] were 3.45 nM, 160 nM and less than 0.14 nM, respectively.

Consider `O=C1NCc2cc(F)c(OCCCN3CCN(c4cccc5ccccc45)CC3)cc21`, for which the Ki in experiment [2] was determined as 32.1 nM; in experiment [5], 54.6 nM; in experiment [3], 0.671 nM.

For `O=C1NCc2ccc(OCCCCN3CCN(c4cccc5cc(F)ccc45)CC3)c(F)c21`, the Ki is 3.07 nM in experiment [2], 2720 nM in experiment [5] and 5.01 nM in experiment [3].

Regarding `O=C1NCc2cc(Cl)c(OCCCN3CCN(c4cccc5ccccc45)CC3)cc21`, the Ki in experiment [2] turned out to be 34.4 nM; in experiment [3], 0.814 nM; in experiment [4], 67.7 nM.

`O=C1NCc2cc(F)c(OCCCCN3CCN(c4cccc5cc(F)ccc45)CC3)cc21`: the Ki worked out at 13.8 nM in experiment [2], 9.1 nM in experiment [5], 2.71 nM in experiment [3] and 13 nM in experiment [4].

With `Cc1c(OCCCCN2CCN(c3cccc4cccc(F)c34)CC2)ccc2c1C(=O)NC2`, the Ki in experiment [2] came to 3.85 nM; in experiment [3], 2.61 nM; in experiment [4] it was 292 nM.

As to `O=C1NCc2ccc(OCCCN3CCN(c4cccc5c4OCCC5)CC3)cc21`, the values for the Ki in experiment [2] and in experiment [3] were 25.3 nM and 0.0501 nM, respectively.

As to `O=C1NCc2ccc(OCCCN3CCN(c4cccc5cc(F)ccc45)CC3)c(F)c21`, the Ki amounted to 5.41 nM in experiment [2], 37.4 nM in experiment [5], 3.04 nM in experiment [3] and 24.7 nM in experiment [4].

Molecule `O=C1NCc2ccc(OCCCCN3CCN(c4cccc5cc(F)c(F)cc45)CC3)cc21` registered a Ki in experiment [1] of 1.3 nM.

For `O=C1NCc2cc(Cl)c(OCCCCN3CCN(c4cccc5ccccc45)CC3)cc21`, the results for the Ki in experiment [2], in experiment [3] and in experiment [4] were 24.7 nM, 2.34 nM and 96.3 nM, respectively.

Turning to `O=C1NCc2ccc(OCCCCN3CCN(c4cccc5cccc(F)c45)CC3)c(F)c21`, the Ki worked out at 0.568 nM in experiment [2], 57.2 nM in experiment [5], 2.09 nM in experiment [3] and 48.1 nM in experiment [4].

For the molecule `Cc1c(OCCCCN2CCN(c3cccc4ccccc34)CC2)ccc2c1C(=O)NC2`, the results for the Ki in experiment [2], in experiment [3] and in experiment [4] were 1.26 nM, 3.22 nM and 388 nM, respectively.

On to `O=C1NCc2ccc(OCCCN3CCN(c4cccc5c4CCO5)CC3)cc21`, for which the Ki was 4.29 nM in experiment [2] and 1.46 nM in experiment [3].

Turning to `O=C1NCc2cc(F)c(OCCCN3CCN(c4cccc5cccc(F)c45)CC3)cc21`, the Ki in experiment [2] was 1.19 nM; in experiment [5], 15.6 nM; in experiment [3], less than 0.521 nM.

`O=C1NCc2ccc(OCCCCN3CCN(c4cccc5ccc(F)cc45)CC3)c(F)c21`: the results for the Ki in experiment [2], in experiment [5] and in experiment [3] were 2.1 nM, 259 nM and 4.56 nM, respectively.

Regarding `O=C1NCc2cc(F)c(OCCCCN3CCN(c4cccc5cccc(F)c45)CC3)cc21`, the Ki in experiment [2] was 3.49 nM; in experiment [5], 10.5 nM; in experiment [3] it was 0.118 nM; in experiment [4], 42.6 nM.

On to `O=C1NCc2ccc(OCCCCN3CCN(c4cccc5ccc(F)cc45)CC3)cc21`, for which the Ki in experiment [2] stood at 11.4 nM; in experiment [1] it was 0.838 nM.

For the molecule `O=C1NCc2ccc(OCCCCN3CCN(c4cccc5c4CCC5)CC3)cc21`, the results for the Ki in experiment [2] and in experiment [3] were 10.1 nM and 0.74 nM, respectively.

As to `O=C1NCc2ccc(OCCCCN3CCN(c4cccc5c4CCO5)CC3)cc21`, the figures for the Ki in experiment [2] and in experiment [3] were 53.4 nM and 1.45 nM, respectively.

Regarding `O=C1NCc2ccc(OCCCCN3CCN(c4cccc5c4OCCC5)CC3)cc21`, the figures for the Ki in experiment [2] and in experiment [3] were 17.1 nM and 0.863 nM, respectively.

As for `O=C1NCc2cc(F)c(OCCCCN3CCN(c4cccc5ccccc45)CC3)cc21`, the Ki in experiment [2] amounted to 13 nM; in experiment [5], 30.8 nM; in experiment [3], 0.637 nM.

Consider `O=C1NCc2ccc(OCCCN3CCN(c4cccc5cccc(F)c45)CC3)c(Cl)c21`, for which the values for the Ki in experiment [2], in experiment [3] and in experiment [4] were 3.55 nM, 0.312 nM and 230 nM, respectively.

As to `Cc1c(OCCCN2CCN(c3cccc4cc(F)ccc34)CC2)ccc2c1C(=O)NC2`, the Ki in experiment [2] was 12.5 nM; in experiment [3] it was 1.08 nM; in experiment [4], 21.4 nM.

`O=C1NCc2ccc(OCCCN3CCN(c4cccc5c4COCC5)CC3)cc21`: the Ki in experiment [2] is 11.1 nM; in experiment [1], 0.108 nM.

Consider `O=C1NCc2ccc(OCCCCN3CCN(c4cccc5ccccc45)CC3)c(F)c21`, for which the Ki in experiment [2] is 1.08 nM; in experiment [5] it was 2520 nM; in experiment [3] it was 3.62 nM.

In the case of `O=C1NCc2ccc(OCCCN3CCN(c4cccc5ccccc45)CC3)c(F)c21`, the Ki is 2.21 nM in experiment [2], 84.7 nM in experiment [5] and 0.128 nM in experiment [3].

Turning to `O=C1NCc2ccc(OCCCN3CCN(c4cccc5cccc(F)c45)CC3)cc21`, the Ki in experiment [6] turned out to be 1290 nM; in experiment [1], 0.0141 nM.

In the case of `O=C1NCc2cc(F)c(OCCCCN3CCN(c4cccc5ccc(F)cc45)CC3)cc21`, the Ki in experiment [2] was 10 nM; in experiment [5], 110 nM; in experiment [3] it was 1.77 nM.

With `O=C1NCc2ccc(OCCCCN3CCN(c4cccc5c4COCC5)CC3)cc21`, the results for the Ki in experiment [2] and in experiment [1] were 5.44 nM and 0.279 nM, respectively.

As for `Cc1cc2c(cc1OCCCCN1CCN(c3cccc4cccc(F)c34)CC1)C(=O)NC2`, the values for the Ki in experiment [2], in experiment [3] and in experiment [4] were 55 nM, 3.61 nM and 118 nM, respectively.

With `Cc1cc2c(cc1OCCCCN1CCN(c3cccc4ccccc34)CC1)C(=O)NC2`, the values for the Ki in experiment [2], in experiment [3] and in experiment [4] were 36.8 nM, 0.803 nM and 504 nM, respectively.

As to `Cc1c(OCCCCN2CCN(c3cccc4cc(F)ccc34)CC2)ccc2c1C(=O)NC2`, the Ki in experiment [2] was 14 nM; in experiment [3], 17.5 nM; in experiment [4], 47 nM.

As for `O=C1NCc2ccc(OCCCCN3CCN(c4cccc5cccc(F)c45)CC3)c(Cl)c21`, the Ki in experiment [2] was 1.13 nM; in experiment [3], 4.25 nM; in experiment [4] it was 213 nM.

For `O=C1NCc2ccc(OCCCCN3CCN(c4cccc5c4COC5)CC3)cc21`, the Ki was 126 nM in experiment [2] and 6.88 nM in experiment [3].

For the molecule `Cc1c(OCCCN2CCN(c3cccc4cccc(F)c34)CC2)ccc2c1C(=O)NC2`, the results for the Ki in experiment [2], in experiment [3] and in experiment [4] were 16.1 nM, 2.13 nM and 437 nM, respectively.

For `O=C1NCc2ccc(OCCCN3CCN(c4cccc5ccc(F)cc45)CC3)cc21`, the figures for the Ki in experiment [2] and in experiment [1] were 3.37 nM and 0.0447 nM, respectively.

`Cc1cc2c(cc1OCCCN1CCN(c3cccc4cc(F)ccc34)CC1)C(=O)NC2`: the Ki amounted to 52 nM in experiment [2], 0.517 nM in experiment [3] and 13.6 nM in experiment [4].

As to `O=C1NCc2cc(F)c(OCCCN3CCN(c4cccc5cc(F)ccc45)CC3)cc21`, the Ki in experiment [2] is 38.5 nM; in experiment [5] it was 22.2 nM; in experiment [3], 0.88 nM; in experiment [4] it was 9.22 nM.
